In patent publication US11925649B2, “Treatments for diabetic neuropathy” (University of Manitoba, priority 2010, dated 2024):

Tests used:
[1] = tested on: mitochondrial respiratory complex I; assay: Mitochondrial respiratory complex I activity in DRG of STZ-diabetic mice; assay type: in vivo, mouse; settings: daily injections for 8 weeks, lumbar DRG
Protocol: All measurements of enzymatic activities in lumbar DRG preparations were performed spectrophotometrically using a temperature controlled Ultrospec 2100 UV-visible spectrophotometer (Biopharmacia Biotech, Uppsala, Sweden) using the methods taught by Chowdhury et al. (2010). Complex I activity was measured as rotenone-sensitive NADH: cytochrome c reductase activity. Freshly prepared assay buffer (50 mmol/l K-phosphate pH 7.4, 1 mmol/l KCN, 100 μmol/l NADH) and 10 μg protein of DRG homogenate preparation were added to the cuvette and preincubated for 3 min at 25° C. After addition of 100 μmol/l oxidized cytochrome c, the reaction was followed for 2 minutes at 550 nm and then for 2 more minutes after addition of 25 μmol/l rotenone to allow calculation of the rotenone-sensitive Complex I activity. Complex IV activity was measured at 25° C. by monitoring the absorbance decrease of reduced cytochrome c at 550 nm as disclosed by Chowdhury et al. (2000, Clin. Chim. Acta 298: 157-173). […] Activity of the Krebs cycle enzyme, citrate synthase, was determined at 25° C. in medium containing 150 mmol/l Tris-HCl (pH 8.2), 0.02% laurylmaltoside, 0.1 mmol/l dithionitrobenzoic acid and 5 μg protein according to the method of Chowdhury et al (2007, Free Radic. Res. 41: 1116-1124). The reaction was initiated by addition of 100 μmol/l acetyl CoA and changes in absorbance at 412 nm were measured for 1 minute. […]

PGC-1α = PGC-1α expression in DRG of STZ-diabetic mice (Western blot); assay type: in vivo, mouse; settings: daily s.c. injections for 8 weeks, lumbar DRG
Protocol: Lumbar DRG were isolated and rinsed in ice-cold solution containing STE buffer (250 mmol/l sucrose, 10 mmol/l Tris-HCl, 1 mmol/l EDTA, pH 7.4), and then homogenized with a polytron homogenizer ([…] GmbH, Switzerland) using 3×7.5 s grinding pulses at 30 s intervals according to the method taught by Chowdhury et al. (2010, Diabetes 59: 1082-1091).
Quantitative Western blotting was performed as previously disclosed by Chowdhury et al (2010) and Fernyhough et al. (1999, Diabetes 48: 881-889). DRG homogenates of 5-10 μg of protein were resolved on a 10% SDS-PAGE gel and electroblotted onto nitrocellulose membrane. Blots were then blocked in 5% nonfat milk containing 0.05% Tween-20, rinsed in PBS (pH 7.4) and incubated with the following antibodies: polyclonal anti-phospho AMPK (1:1000, Cell Signaling Technology, Danvers, MA, US), polyclonal anti-PGC-1α (1:1000, Santa Cruz Biotechnology Inc, Santa Cruz, CA, USA) and monoclonal anti-ATP synthase β subunit (1:2000 dilution, Mitosciences, Eugene, OR). Extracellular signal-regulated kinase (ERK; 1:2000, Covance, Princeton, NJ, US) was probed as a loading control (previous studies show this protein to not change level of expression in DRG in diabetes). […]

[2] = tested on: sensory neurons from DRG of Sprague Dawley rat; assay: Total neurite outgrowth at low concentrations of M1R antagonists (immunostaining); assay type: cell-based; settings: 24 hr culture
Protocol: Sensory neurons from cervical, thoracic and lumbar DRG of an adult 3-4 month old male Sprague Dawley rat were isolated and dissociated using the method described in Example 1, and then were cultured for 24 h in serum-free and insulin-free F12 medium in the presence of modified N2 additives. […] Neurite outgrowth was then assessed after a culture period of 24 hr.
Total neurite lengths (i.e., the sum of the length of all neurites produced by an individual neuron) were assessed using an immunostaining method. […] Four images were captured per well and the replicate well frequency was set to n=6. The neuronal marker β-tubulin III (Sigma-Aldrich Canada Ltd.) was applied to formalin fixed cells. The marker was tagged with the fluorescent conjugate Alexa Fluor 488 (Invitrogen Canada Ltd.). Fluorescent images were collected using an Olympus IX71 inverted microscope with a 20×/0.45 PH1 [sequence] objective that was suitable for resolving images on plastic surfaces. […] Captured image fluorescence was thereafter converted to a grayscale 8-bit image to quantify total pixel volume. […] Total pixel volume of the neuron specific cell bodies and neurites were quantified. […] The net pixel volume was normalized against the number of neuronal cells per quantified field.

[3] = tested on: STZ diabetic C57Bl6J mice; assay: Prophylactic subcutaneous injections in STZ diabetic mice; assay type: in vivo, mouse
Protocol: Male C57Bl6J mice were made diabetic with 2 injections of 90 mg/kg STZ on consecutive days, and then separated into four groups.
Two months after the second STZ injection, the function of the small sensory neurons in all five groups of mice were determined by measuring hind paw thermal response latency using a modified Hargreaves apparatus (UARD, San Diego, CA, US) with a heating rate of approximately 1° C./sec from a baseline of 30° C. and with a cut-off at 20 seconds as taught by Calcutt et al. (2004, Diabetologia 47: 718-724). […] Statistical analysis was done using the one-way ANOVA with post-hoc comparison using Tukey's test.
The structural integrity of small sensory neurons was assessed by measuring intraepidermal nerve fiber (IENF) profiles in hind paw plantar skin that was immersion fixed in 4% paraformaldehyde and processed to paraffin blocks. Sections (6 μm) were stained with the pan-neuronal marker PGP9.5 (1:1000, Biogenesis Ltd., Poole, UK) and viewed under a light microscope to allow counting of IENF and sub-epidermal nerve profiles (SNP) per unit length of the dermal: epidermal border using the technique taught by Beiswenger et al. (2008, Neurosci Lett. 442, 267-272). […] Statistical analyses were done using one-way ANOVA followed by Tukey's test.
Motor nerve conduction velocity was measured under isoflurane anesthesia and core and nerve temperature were maintained at 37° C. using a heating pad and lamps following the teachings of Jolivalt et al, (2011, Diabetes Obesity and Metabolism, June 2 Epub ahead of print). The sciatic nerve was stimulated (5V, 0.05 ms pulse, square wave) with needle electrodes at the sciatic notch or ankle. […] The difference in response latencies of the M wave after stimulation at the sciatic notch and ankle was recorded as the time required for the motor nerve conduction between the stimulation sites. The distance between stimulation sites was measured on the surface of the fully extended hind limb and divided by the difference in M wave latencies to calculate sciatic motor nerve conduction velocity (MNCV). […]

[4] = 10 mg/kg daily s.c., two months after STZ, vs control mice

CN1CCN(CC(=O)N2c3ccccc3C(=O)Nc3cccnc32)CC1 [pirenzepine, 11-[2-(4-methylpiperazin-1-yl)acetyl]-5H-pyrido[2,3-b][1,4]benzodiazepin-6-1]
activity of mitochondrial respiratory complex I [1]: restored the deficits | expression of PGC-1α (PGC-1α): restored the expression | concentration that significantly increased total neurite outgrowth [2]: ≥ 0.003 µM | hind paw thermal response latency [3, 4]: not significantly different from the control non-diabetic mice | paw levels of IENF [3, 4]: no significant changes | motor nerve conduction velocity ([3]; diabetic mice): prevented deficits in motor nerve conduction velocity
